9 compounds from ChEMBL document CHEMBL3867475, “Discovery of furo[2,3-d][1,3]thiazinamines as beta amyloid cleaving enzyme-1 (BACE1) inhibitors” (Bioorg Med Chem Lett, 2016) can be followed below.

Data set [1] is described as follows: Permeability from basolateral side to apical side in human Caco2 cells. The data set is classed as ADME, cell-based. To be noted: Caco-2, read-out: permeability. (Caco-2 monolayers are a common model of the intestinal barrier.)
The nature of data set [2]: Chemical stability of compound in aqueous condition at pH 1 to 10 at 40 degC measured up to 24 hrs. Format: physicochemical. To be noted: buffer, pH 1, 24 h.
A short description of data set [3]: Permeability from apical side to basolateral side in human Caco2 cells. Format: ADME, cell-based. The settings on record: Caco-2, read-out: permeability.

`N#Cc1ccc(C(=O)Nc2ccc(F)c([C@@]34N=C(N)SC[C@@H]3CCO4)c2)nc1`: the Papp B→A in data set [1] turned out to be 54.2 ×10⁻⁶ cm/s. Further, the Stability result in data set [2] is listed as “Stable”. In addition, the Papp A→B in data set [3] came out at 16.4 ×10⁻⁶ cm/s.
With `NC1=N[C@@]2(c3cc(NC(=O)c4ccc(F)cn4)ccc3F)OCC[C@H]2CS1`, the Stability result in data set [2] is given as “Stable”.
Same read-out and setting: for `NC1=N[C@@]2(c3cc(NC(=O)c4ccccn4)ccc3F)OCC[C@H]2CS1` the value was “Stable”.
As for `COc1cnc(C(=O)Nc2ccc(F)c([C@@]34N=C(N)SC[C@@H]3CCO4)c2)cn1`, in data set [2], the Stability entry is recorded as “Stable”.
On the same count and under the same terms, under `NC1=N[C@@]2(c3cc(NC(=O)c4ncc(Cl)cc4Cl)ccc3F)OCC[C@H]2CS1` stands “Stable”.
As to `NC1=N[C@@]2(c3cc(NC(=O)c4ccc(Cl)cn4)ccc3F)OCC[C@H]2CS1`, the Papp B→A in data set [1] amounted to 24.4 ×10⁻⁶ cm/s. Also, in data set [2], the Stability result was “Stable”. In addition, in data set [3], the Papp A→B amounted to 17.7 ×10⁻⁶ cm/s.
With `NC1=N[C@@]2(c3cc(NC(=O)c4ncccc4F)ccc3F)OCC[C@H]2CS1`, in data set [2], the Stability result was “Stable”.
Same read-out and setting: for `NC1=N[C@@]2(c3cc(NC(=O)c4ccc(OC(F)F)cn4)ccc3F)OCC[C@H]2CS1` the value was “Stable”; for `NC1=N[C@@]2(c3cc(NC(=O)c4ccc(Br)cn4)ccc3F)OCC[C@H]2CS1`, “Stable”.
